Experimental findings from ChEMBL document CHEMBL5360649, “Potential Broad-Spectrum Antimicrobial, Wound Healing, and Disinfectant Cationic Peptide Crafted from Snake Venom” (J Med Chem, 2023) are described below.

The MIC is the lowest concentration found to suppress growth.

Test [1] deals with Pseudomonas aeruginosa. Nature of the test: Antibacterial activity against patient-derived Pseudomonas aeruginosa assessed as inhibition of bacterial growth incubated for 24 hrs by CLSI protocol based microdilution method. The test is classed as functional.
Test [2] deals with Staphylococcus aureus. Description: Antibacterial activity against patient-derived methicillin-resistant Staphylococcus aureus assessed as inhibition of bacterial growth at 25 to 100 uM incubated overnight by spotting assay. Type of test: functional, organism-based. The settings on record: dose 25-100 µM.
For test [3], the system named is Klebsiella pneumoniae. Nature of the test: Antibacterial activity against Klebsiella pneumoniae ATCC BAA-1705 assessed as inhibition of bacterial growth at 25 to 100 uM incubated overnight by spotting assay. Type of test: functional, organism-based. The following applies: dose 25-100 µM.
Test [4] has as its system Escherichia coli. Description: Antibacterial activity against Escherichia coli ATCC CRM-11229 assessed as inhibition of bacterial growth incubated for 24 hrs by CLSI protocol based microdilution method. The test is classed as functional. (Dilution methods test growth across graded concentrations, often in twofold steps.)
Test [5] deals with Staphylococcus aureus. Description: Antibacterial activity against patient-derived methicillin-resistant Staphylococcus aureus assessed as inhibition of bacterial growth incubated for 24 hrs by CLSI protocol based microdilution method. Type of test: functional.
Test [6] concerns Klebsiella pneumoniae. Description: Antibacterial activity against Klebsiella pneumoniae ATCC BAA-1705 assessed as inhibition of bacterial growth incubated for 24 hrs by CLSI protocol based microdilution method. The test is classed as functional.
The test system of test [7] is Pseudomonas aeruginosa. Description: Antibacterial activity against patient-derived Pseudomonas aeruginosa assessed as inhibition of bacterial growth at 25 to 100 uM incubated overnight by spotting assay. The settings on record: dose 25-100 µM. The test is classed as functional, organism-based.
In test [8] the test system is Escherichia coli. Nature of the test: Antibacterial activity against Escherichia coli ATCC CRM-11229 assessed as inhibition of bacterial growth at 25 to 100 uM incubated overnight by spotting assay. Type of test: functional, organism-based. The following applies: dose 25-100 µM.
Test [9] relates to Cell membrane. Nature of the test: Induction of cytoplasmic membrane depolarization in Klebsiella pneumoniae assessed as increase in fluorescence intensity at 5 uM by DiSC3-5 dye based fluorescence method. Type of test: subcellular.
Test [10] has as its system Cell membrane. Nature of the test: Induction of outer membrane permeabilization in methicillin-resistant Staphylococcus aureus incubated for 5 to 20 mins by fluorescence based NPN uptake assay. Type of test: subcellular. The following applies: time 5-20 min.
The species named for a further test is Rattus norvegicus. Nature of the test: Induction of wound healing in surgically-induced Albino Wistar rat wound model inoculated with methicillin-resistant Staphylococcus aureus assessed as reduction in scarring measured after 11 days by H&E staining based analysis. The test is classed as functional. The settings on record: time 11.0 day.
For test [11], the system named is Pseudomonas aeruginosa. Nature of the test: Induction of resistance development in Pseudomonas aeruginosa assessed as fold increase in MIC at 0.5 times of MIC incubated with compound for 12 hrs followed by replacement with fresh medium for 12 hrs and measured after 20 repeated cycles. Type of test: functional, organism-based. The following applies: time 240.0 hrs.

The subject of test [12] is Klebsiella pneumoniae. Description: Induction of resistance development in Klebsiella pneumoniae assessed as fold increase in MIC at 0.5 times of MIC incubated with compound for 12 hrs followed by replacement with fresh medium for 12 hrs and measured after 20 repeated cycles. Type of test: functional. The following applies: time 240.0 hrs.

Calls of active or inactive are those of the source. The calls are words filed in the database; no cut-off is given here. Bridge positions count the residues as written; N and C are the ends. Square brackets hold non-standard residues; d marks the D form. Peptide text beside a SMILES is read from it. * marks the point of attachment. ξ: configuration not given here. Heptanoyl(6-Me) = CC(C)CCCCC(=O)*; dDab = NCC[C@@H](N)C(=O)O; Orn = NCCC[C@H](N)C(=O)O; Dab = NCC[C@H](N)C(=O)O; ξP = O=C(O)C1CCCN1

On to H-LPIIKWVKKFFWRWR-OH, for which the MIC stood at 10 µM with Pseudomonas aeruginosa [1], 8 µM in the test on Escherichia coli [4], 15 µM in the test on Staphylococcus aureus [5] and 16 µM in the test on Klebsiella pneumoniae [6]. In addition, the result in the test with Staphylococcus aureus [2], in the test with Klebsiella pneumoniae [3], with Pseudomonas aeruginosa [7] and in the test on Escherichia coli [8] was Active.

As to `CC(C)C[C@@H]1NC(=O)[C@H](CCCN)NC(=O)[C@H](C(C)C)NC(=O)[C@@H]2CCCN2C(=O)[C@@H](Cc2ccccc2)NC(=O)[C@H](CC(C)C)NC(=O)[C@H](CCCN)NC(=O)[C@H](C(C)C)NC(=O)C2CCCN2C(=O)[C@@H](Cc2ccccc2)NC1=O` (stereo partly drawn) (cyclo(L[dF]PV[Orn]L[dF][ξP]V[Orn])), the result in the test on Cell membrane [9] was Active.

`CC(C)CCCCC(=O)N[C@@H](CCN)C(=O)N[C@H](C(=O)N[C@@H](CCN)C(=O)N[C@H]1CCNC(=O)[C@H]([C@@H](C)O)NC(=O)[C@H](CCN)NC(=O)[C@H](CCN)NC(=O)[C@H](CC(C)C)NC(=O)[C@@H](Cc2ccccc2)NC(=O)[C@@H](CCN)NC1=O)[C@@H](C)O` ({Heptanoyl(6-Me)}-[Dab]T[Dab][Dab][dDab][dF]L[Dab][Dab]T; lactam 4-C): the result in the test on Cell membrane [10] was Active.

Take `C=CN1CCCC1=O.II`: the outcome in the test filed under Rattus norvegicus was inactive.

Consider COLISTIN, for which the fold change (FC) in the test with Pseudomonas aeruginosa [11] was determined as 2; in the test on Klebsiella pneumoniae [12] it was 4.
